This passage reports cytotoxicity results from ChEMBL document CHEMBL3507680, “University of Dundee, Gates Library screen for HepG2 cell viability”.

Molecules are shown by their SMILES.

The data set is described as follows: Human HepG2 cell viability assay in 384 well format. The following applies: HepG2 cells, read-out: Inhibition. Further details: dose 125 nL, time 70.5 hour; concentration not given beside the values. The data set is classed as toxicity, cell-based.
As for `Cc1ccc(S(=O)(=O)NC(=O)COc2ccc(CC#N)cc2)s1`, the cytotoxicity at 70.5 h is 2.71%.

Take `CC1CCN(c2ccc(CNC(=O)NCCn3ccnc3)cn2)CC1`: the cytotoxicity at 70.5 h is -0.689%.

As to `COCCCNC(=O)NCc1ccc(N2CCOC(C)C2)nc1` (stereo not drawn), the cytotoxicity at 70.5 h worked out at 17.1%.

Take `Cc1cc(CS(=O)(=O)C(C)c2ccc(F)cc2)on1` (stereo not drawn): the cytotoxicity at 70.5 h is -5.55%.

Turning to `CCc1sc(C(=O)Nc2cnn(CC(=O)NC3CC3)c2)cc1C`, the cytotoxicity at 70.5 h is -8.41%.

For `CC1(C)Oc2ccc(NC(=O)c3ccc(=O)[nH]n3)cc2O1`, the cytotoxicity at 70.5 h is -12.5%.

As for `CN(C)c1ncc(CNC(=O)Nc2ccccc2C(F)(F)F)n1C`, the cytotoxicity at 70.5 h stood at 18.7%.

For `Cc1ccc2c(c1)OC(C)CN2C(=O)Cc1ccc(C)nc1` (stereo not drawn), the cytotoxicity at 70.5 h was -0.93%.

Consider `CC(CCN(C)C)NC(=O)c1cccc(C(F)(F)F)c1F` (stereo not drawn), for which the cytotoxicity at 70.5 h was -1.47%.

Consider `Cc1csc(N(C)C(=O)C(c2c(F)cccc2Cl)N(C)C)n1` (stereo not drawn), for which the cytotoxicity at 70.5 h is -0.598%.

As for `CC(CCN1CCOCC1)NC(=O)c1cccc(C(F)(F)F)c1F` (stereo not drawn), the cytotoxicity at 70.5 h was -5.66%.

As for `Cc1c(C(C)NC(=O)Nc2ccc(F)c(F)c2)cnn1C` (stereo not drawn), the cytotoxicity at 70.5 h was -3.96%.

As for `COc1ccc2cc(CNc3c(C)nn(C(C)C)c3C)ccc2c1`, the cytotoxicity at 70.5 h was -0.974%.

Regarding `O=C(CN1CCCC(c2ccn[nH]2)C1)Nc1nc2c(s1)CCCC2` (stereo not drawn), the cytotoxicity at 70.5 h came out at 1.65%.

Regarding `CCN(Cc1noc(CC(C)C)n1)Cc1ccccc1C`, the cytotoxicity at 70.5 h is -1.58%.

As for `Cc1nnc(NC(=O)CN2CCCC(c3ccn[nH]3)C2)s1` (stereo not drawn), the cytotoxicity at 70.5 h was found to be 18.6%.

For `CC(C)NC(=O)CC(C)NCc1ccc(F)cc1Cl` (stereo not drawn), the cytotoxicity at 70.5 h was -3.7%.

As to `CC(C)NC(=O)CC(C)NCc1cc(Cl)ccc1F` (stereo not drawn), the cytotoxicity at 70.5 h is -3.06%.

Consider `Cc1ccc2cc(C(=O)N3CCC(O)(C(F)(F)F)CC3)ccc2n1`, for which the cytotoxicity at 70.5 h amounted to 0.437%.

In the case of `Cc1cc(C2CCCN(CC(=O)Nc3nc4c(s3)CCC4)C2)n[nH]1` (stereo not drawn), the cytotoxicity at 70.5 h came to 18.9%.

Regarding `CC1CCCN1C1CCN(C(=O)c2cccc(-c3ccoc3)c2)CC1` (stereo not drawn), the cytotoxicity at 70.5 h came out at 10.8%.

As to `CCS(=O)(=O)c1ccc(NCc2csc(C(C)C)n2)cc1`, the cytotoxicity at 70.5 h worked out at 4.81%.

In the case of `Cc1ccc(OCCNC(=O)C2CCOCC2)c(C)c1`, the cytotoxicity at 70.5 h was 35.7%.

In the case of `Cc1noc(C)c1CN(C)c1ncnc2ccccc12`, the cytotoxicity at 70.5 h was -6.84%.

As for `c1ccc2[nH]c(C3CCN(Cc4nc(C5CC5)no4)CC3)cc2c1`, the cytotoxicity at 70.5 h was -1.32%.

Turning to `COc1cccc(OCc2nnc3n2N=C(C(C)(C)C)CS3)c1`, the cytotoxicity at 70.5 h was -8.92%.

For `CN(CC(N)=O)CC(=O)N(C1=CCCCC1)C1CC1`, the cytotoxicity at 70.5 h is -10.7%.

Regarding `c1ccc2[nH]c(C3CCN(Cc4noc(C5CC5)n4)CC3)cc2c1`, the cytotoxicity at 70.5 h was -3.83%.

In the case of `CCOc1ccc(C#N)cc1NC(=O)N1CCCC(NC(=O)CC)C1` (stereo not drawn), the cytotoxicity at 70.5 h was -7.12%.

As for `CCNC(=O)C1CCCN(C(=O)Nc2cc(C#N)ccc2OCC)C1` (stereo not drawn), the cytotoxicity at 70.5 h was 0.887%.

Take `Cc1oc(C(=O)O)cc1S(=O)(=O)Nc1cccc(-c2nccs2)c1`: the cytotoxicity at 70.5 h amounted to 6.48%.

In the case of `Cc1ccc(NS(=O)(=O)c2cc(C(=O)O)oc2C)c(Br)c1`, the cytotoxicity at 70.5 h was -6.35%.

In the case of `O=C(CN1CCSCC1c1ccccc1)N1CCCC1` (stereo not drawn), the cytotoxicity at 70.5 h was 20%.

Turning to `Cc1cccc(NS(=O)(=O)c2cc(C(=O)O)oc2C)c1`, the cytotoxicity at 70.5 h was -0.669%.

`CN(C)C(=O)c1cc(NC(=O)N2CCCC(C(F)(F)F)C2)ccn1` (stereo not drawn): the cytotoxicity at 70.5 h was -1.06%.

For the compound `Cc1oc(C(=O)O)cc1S(=O)(=O)Nc1ccc(Cl)c(Cl)c1`, the cytotoxicity at 70.5 h is -3.75%.

`CC(C)(C)c1nnc(CN2CCC(c3cc4ccccc4[nH]3)CC2)o1`: the cytotoxicity at 70.5 h is 17.4%.

As for `CN(CC(C)(C)O)C(=O)Nc1ccc(F)c(-n2cccc2)c1`, the cytotoxicity at 70.5 h was -9.2%.

As for `CNC(=O)C(C)CN(C)C(=O)Nc1ccc(Cl)cc1-n1cccc1` (stereo not drawn), the cytotoxicity at 70.5 h was determined as 4.05%.

In the case of `CN(CC(N)=O)C(=O)c1cn(-c2ccc(Br)cc2)cn1`, the cytotoxicity at 70.5 h was 23.1%.

Consider `CC(CO)N(C)C(=O)c1cn(-c2ccc(Br)cc2)cn1` (stereo not drawn), for which the cytotoxicity at 70.5 h was -7.34%.

As to `CS(=O)(=O)CC1(CNc2ccc(C#N)c(C(F)(F)F)c2)CC1`, the cytotoxicity at 70.5 h was -3.35%.

`Cc1nc(CC(C)C)sc1C(=O)N1CCC(C2(C)OCCO2)CC1`: the cytotoxicity at 70.5 h turned out to be 2.11%.

Take `CC(C)c1nc(CNc2ccc(CNS(C)(=O)=O)cc2)cs1`: the cytotoxicity at 70.5 h was -8.66%.

Take `Cc1nc(CC(C)C)sc1C(=O)N1CCC1`: the cytotoxicity at 70.5 h was -2.02%.

`CC(=O)N1CCN(CCNc2ncc(Br)cc2C)CC1`: the cytotoxicity at 70.5 h was -1.98%.

On to `CCOCC(=O)Nc1ncn(Cc2cccc(Br)c2)n1`, for which the cytotoxicity at 70.5 h is 17.2%.

Regarding `Cc1nn(C)c(Oc2cccc(F)c2)c1NC(=O)C1CCCO1` (stereo not drawn), the cytotoxicity at 70.5 h is -6.09%.

In the case of `CCOCc1ccccc1NC(=O)NC1CCN(C(=O)OCC)CC1`, the cytotoxicity at 70.5 h was -5.57%.

Turning to `CCOCc1ccccc1NC(=O)NC1CCN(CC(F)(F)F)C1` (stereo not drawn), the cytotoxicity at 70.5 h is -6.42%.

For the compound `CCOCc1ccccc1NC(=O)NC1CCN(c2ccccc2)C1` (stereo not drawn), the cytotoxicity at 70.5 h was -4.36%.

In the case of `CCOCc1ccccc1NC(=O)NC1CCN(C2CCCC2)C1` (stereo not drawn), the cytotoxicity at 70.5 h is -6.21%.

For `CS(=O)(=O)Cc1nc(CN2CCc3ccccc3CC2)cs1`, the cytotoxicity at 70.5 h was determined as 5.16%.

In the case of `O=C(O)c1ccc(S(=O)(=O)Nc2ccccc2CC(F)(F)F)c(F)c1`, the cytotoxicity at 70.5 h is -15.6%.

`Cc1cc(Cl)c2c(c1)C1(NC(=O)c3cccnc3N1)C(=O)N2` (stereo not drawn): the cytotoxicity at 70.5 h is -1.82%.

For `CC1(C)CN(Cc2csc(CS(C)(=O)=O)n2)Cc2ccccc21`, the cytotoxicity at 70.5 h was -0.447%.

As to `NC(=O)C1(CNCc2csc(-c3cccs3)n2)CCOCC1`, the cytotoxicity at 70.5 h is -6.81%.

For the compound `O=C(NCc1nnc2n1CCCCC2)N1CCC2(CCCCC2)C1`, the cytotoxicity at 70.5 h is -6.29%.

On to `CCN(C(=O)CCn1cccn1)C1CC1`, for which the cytotoxicity at 70.5 h is -5.79%.

Take `CC(Cn1cccn1)NCc1csc(-c2ccc(F)cc2)n1` (stereo not drawn): the cytotoxicity at 70.5 h is 5.69%.

With `OC1(CNC2CCN(c3ccccn3)CC2)CCc2ccccc21` (stereo not drawn), the cytotoxicity at 70.5 h is -6.83%.

On to `CSC1(CNC(=O)N(C)Cc2ccc(Cl)s2)CCOCC1`, for which the cytotoxicity at 70.5 h is 30.6%.

For the compound `O=C(COCc1ccccc1Cl)N1CCN(c2ncccn2)CC1`, the cytotoxicity at 70.5 h is 6.02%.

Take `CO[C@H]1CCN(S(=O)(=O)c2cccs2)[C@H]1Cc1ccncc1`: the cytotoxicity at 70.5 h is -6.14%.

Regarding `Cn1ncc2c1C(COCC1CC1)CN(Cc1ccco1)C2` (stereo not drawn), the cytotoxicity at 70.5 h was 4.98%.

As to `CN(C)C(=O)[C@H]1C[C@H]2OCC[C@H]2N(Cc2ccccn2)C1`, the cytotoxicity at 70.5 h was -2.93%.

For the compound `Cc1noc([C@H]2C[C@H]3OCC[C@H]3N(Cc3ccncc3)C2)n1`, the cytotoxicity at 70.5 h is -7.52%.

Regarding `c1ccc(CN2CCc3ncnc(-c4cncnc4)c3CC2)nc1`, the cytotoxicity at 70.5 h turned out to be 21.8%.

With `O=C(N1CCCC1)N1CCn2c(Cn3cccn3)cnc2C1`, the cytotoxicity at 70.5 h was -0.231%.

For `O=C1CC(c2cccnc2)C2(CCN(C(=O)N3CCOCC3)CC2)N1` (stereo not drawn), the cytotoxicity at 70.5 h was -12.4%.

`O=C1CC(c2ccncc2)C2(CCN(C(=O)c3ccnnc3)CC2)N1` (stereo not drawn): the cytotoxicity at 70.5 h was -8.48%.

As to `Cc1nc(CN2C(=O)CC[C@@H]3[C@H]2CCN3C(=O)C2CCOCC2)cs1`, the cytotoxicity at 70.5 h was -7.34%.

Regarding `Cc1nc(CN2C(=O)CC[C@@H]3[C@H]2CCN3C(=O)c2ccno2)cs1`, the cytotoxicity at 70.5 h was -1.87%.

As for `CN(C)C(=O)N1CCn2cc(CNC(=O)CC3CC3)nc2C1`, the cytotoxicity at 70.5 h is -0.867%.

Consider `O=C(c1ccncc1)N1CCc2c(COCC3CC3)cncc2C1`, for which the cytotoxicity at 70.5 h was 0.493%.

On to `O=C(c1cnccn1)N1CCc2c(COCC3CC3)cncc2C1`, for which the cytotoxicity at 70.5 h is -7.37%.

Regarding `COCC1CN(C(=O)Cc2ccc(F)cc2)Cc2ccnn2C1` (stereo not drawn), the cytotoxicity at 70.5 h is -5.52%.

Turning to `COC1COC2(CCN(c3ccc(C#N)cc3)CC2)C1` (stereo not drawn), the cytotoxicity at 70.5 h was -5.93%.

On to `CCOCC(=O)N1Cc2nccn2CC(CN2CCCC2)C1` (stereo not drawn), for which the cytotoxicity at 70.5 h is -11.5%.

For the compound `O=C1CO[C@@H]2CN(C3CCOCC3)C[C@H]2N1Cc1cccc(F)c1`, the cytotoxicity at 70.5 h was -6.55%.

With `Cc1nc(CN2CCc3ncnc(-c4ccsc4)c3CC2)cs1`, the cytotoxicity at 70.5 h was -9.47%.

With `Cc1nc(CN2CCc3ncnc(C4CC4)c3CC2)cs1`, the cytotoxicity at 70.5 h is -2.07%.

On to `CN(C)C(=O)[C@H]1C[C@H]2OCC[C@H]2N(Cc2ccc3c(c2)OCO3)C1`, for which the cytotoxicity at 70.5 h is 0.648%.

With `O=C([C@H]1C[C@H]2OCC[C@H]2N(Cc2ccoc2)C1)N1CCCO1`, the cytotoxicity at 70.5 h was -5.69%.

`Cc1noc([C@@H]2C[C@H]3OCC[C@H]3N(CC3CCCC3)C2)n1`: the cytotoxicity at 70.5 h is -10.4%.

`CN(C)C(=O)COC1COC2(CCN(c3cccc(F)c3)CC2)C1` (stereo not drawn): the cytotoxicity at 70.5 h is 2.89%.

On to `Cc1cc(CN2C[C@@H]3COC[C@]3(CNS(C)(=O)=O)C2)no1`, for which the cytotoxicity at 70.5 h was 1.21%.

In the case of `COCCN1C(=O)CC[C@@H]2[C@H]1CCN2Cc1ccc(C)s1`, the cytotoxicity at 70.5 h was -11.5%.

Regarding `Cc1cncc(C(=O)N2CCC3(CC2)NC(=O)CC3c2ccccc2)c1` (stereo not drawn), the cytotoxicity at 70.5 h is 17.7%.

As for `O=C(c1ccncc1F)N1CCc2ncnc(C3CC3)c2CC1`, the cytotoxicity at 70.5 h was -1.77%.

Regarding `Cc1cccc(CN2C(=O)CC[C@@H]3[C@H]2CCN3C(=O)c2ccsc2)n1`, the cytotoxicity at 70.5 h was -12.3%.

In the case of `CCS(=O)(=O)NC[C@]12COC[C@H]1CN(Cc1sccc1C)C2`, the cytotoxicity at 70.5 h was -0.717%.

Regarding `COCC1CN(C(=O)Cc2cccc(F)c2)Cc2ccnn2C1` (stereo not drawn), the cytotoxicity at 70.5 h was -5.69%.

Consider `Cc1noc([C@H]2C[C@H]3OCC[C@H]3N(Cc3scnc3C)C2)n1`, for which the cytotoxicity at 70.5 h was -7.11%.

In the case of `CN1CC(=O)N(c2cccc(F)c2)CC12CCN(CCO)C2` (stereo not drawn), the cytotoxicity at 70.5 h is -5.44%.

With `c1csc(CN2CCCn3cnc(CN4CCCC4)c3C2)c1`, the cytotoxicity at 70.5 h was -2.7%.

For `CN(Cc1cccnc1)CC1CN(C(=O)C2CC2)Cc2nccn2C1` (stereo not drawn), the cytotoxicity at 70.5 h was -7.48%.

Consider `Cc1cccc(CN2C(=O)CC[C@H]3[C@@H]2CCN3CC(=O)N(C)C)n1`, for which the cytotoxicity at 70.5 h was -7.14%.
